Results reported in paper PMC10746280, “Bacterial efflux pump modulators prevent bacterial growth in macrophages and under broth conditions that mimic the host environment” (mBio, 2023).

Experiments:
RAW 264.7 macrophages = experiment: SAFIRE macrophage assay: host toxicity (adherent macrophage count, morphology); assay type: cell-based
Text: (§1) In SAFIRE, we used MATLAB software to count the number of macrophages that remain adherent and retain the red fluorescence of MitoTracker, an indicator of voltage across the mitochondrial inner membrane. MATLAB then calculates the signal from bacteria (green fluorescent protein [GFP]) that overlaps with macrophages, as defined by MitoTracker, to estimate bacterial load. […] For example, we observed that the 6-trifluoropyrimidin-2-yl group on the right-hand side of EPM35 is apparently toxic to macrophages. Non-toxic analogs that reduced bacterial load by at least 60% at 5 µM and 25 µM in SAFIRE, as compared with DMSO, progressed and were evaluated in SAFIRE across eight or more concentrations, ranging from 0.001 µM to 50 µM (n = 2). […] Each of the top 13 analogs had at least an eightfold increase in potency and were not toxic for macrophages at 50 µM in the SAFIRE assay (Fig. 1C).
(§2) As previously described ([18]), RAW 264.7 macrophages (between passages 1 and 6) were grown in complete Dulbecco’s modified Eagle’s medium (DMEM) to approximately 70% to 90% confluence, scraped, washed, resuspended, diluted to 5 × 10^4 in 100 µL, and seeded in black, 96-well, glass-bottomed plates (Brooks Life Sciences catalog number MGB096-1-2-LG-L) at 37°C with 5% CO2. Twenty-four hours later, bacteria grown overnight in LB were diluted into 50 µL phosphate buffered saline (PBS) and added to a final concentration of 1 × 10^7 S. Typhimurium SL1344 (sifB::gfp) per milliliter ([78]) for an approximate multiplicity of infection of 30 bacteria per macrophage cell. Forty-five minutes after bacterial addition, gentamicin (Sigma catalog number G1264) was added to a final concentration of 40 µg/mL to inhibit the growth of remaining extracellular bacteria. Two hours after infection, gentamicin-containing medium was removed and replaced with 200 µL fresh DMEM with compound or DMSO (Sigma catalog number 276855) to the stated final concentrations. At 17.5 h after infection, PBS containing MitoTracker Red CMXRos (Life Technologies catalog number M7512), a vital dye for mitochondrial electric potential, was added to a final concentration of 100 nM. At 18 h after infection, 16% paraformaldehyde was added to a final concentration of 4% and incubated at room temperature for 15 min. Cells were washed twice with PBS and stained for 20 min with 1 µM 4′,6-diamidino-2-phenylindole (DAPI), a vital dye for double-stranded DNA, and stored in 90% glycerol in PBS until imaging. Samples were imaged in six fields of view per well using a semiautomated Yokogawa CellVoyager CV1000 confocal scanner system with a 20×, 0.75-numerical aperture (NA) objective. A MATLAB algorithm calculated bacterial accumulation (GFP fluorescence) within macrophages, as defined by DAPI and MitoTracker Red. GFP^+ macrophage area was defined as the number of GFP-positive pixels per macrophage divided by the total number of pixels per macrophage, averaged across all macrophages in the field ([34]).

[1] = test system: S. Typhimurium SL1344 (sifB::gfp) in RAW 264.7 macrophages; experiment: SAFIRE macrophage assay: intracellular bacterial load (GFP signal within macrophages); assay type: cell-based, Salmonella enterica serotype Typhimurium; conditions: 'Toxic' given instead of a score
Text: as §1, §2

SMILES	5 uM Avg Cell # Score (RAW 264.7 macrophages)	25 uM Avg Cell # Score (RAW 264.7 macrophages)	5 uM Avg Antibacterial Score [1]	25 uM Avg Antibacterial Score [1]
NC(=O)[C@H]1CC[C@@H](NCC(O)COc2ccc(Cl)c(Cl)c2)C1 (some centres unmarked) [CU066]	91	86	103	100
NC(=O)N1CCN(CC(O)COc2ccc(Cl)c(Cl)c2)CC1 (centres unmarked) [CU067]	79	88	104	101
O=C(NC1CCN(CC(O)COc2ccc(Cl)c(Cl)c2)C1)c1ccccc1 (centres unmarked) [CU068]	80	49	20	Toxic
CC(C)C(=O)NC1CCN(CC(O)COc2ccc(Cl)c(Cl)c2)C1 (centres unmarked) [CU069]	96	94	95	52
OC(CNCCNc1nccc(C(F)(F)F)n1)COc1ccc(Cl)c(Cl)c1 (centres unmarked) [CU070]	49	65	Toxic	Toxic
CC(=O)N(CCNc1nccc(C(F)(F)F)n1)CC(O)COc1ccc(Cl)c(Cl)c1 (centres unmarked) [CU071]	62	56	85	Toxic
CC(C)N(CCNc1nccc(C(F)(F)F)n1)CC(O)COc1ccc(Cl)c(Cl)c1 (centres unmarked) [CU072]	62	94	Toxic	Toxic
O=C(O)C1CCN(CC(O)COc2ccc(Cl)c(Cl)c2)CC1 (centres unmarked) [CU073]	100	140	102	101
CCc1ccc(OCC(O)CN2CCC(Nc3nccc(C(F)(F)F)n3)CC2)cc1 (centres unmarked) [CU074]	71	114	10	Toxic
COC(=O)c1ccc(OCC(O)CN2CCC(Nc3nccc(C(F)(F)F)n3)CC2)cc1 (centres unmarked) [CU075]	86	56	68	Toxic
CC(=O)Nc1ccc(OCC(O)CN2CCC(Nc3nccc(C(F)(F)F)n3)CC2)cc1 (centres unmarked) [CU076]	79	86	102	103
OC(COc1ccc(-c2ccccc2)cc1)CN1CCC(Nc2nccc(C(F)(F)F)n2)CC1 (centres unmarked) [CU077]	35	114	11	Toxic
OC(COc1ccc2ccccc2c1)CN1CCC(Nc2nccc(C(F)(F)F)n2)CC1 (centres unmarked) [CU078]	87	133	7.5	Toxic
OC(COc1cccc2ccccc12)CN1CCC(Nc2nccc(C(F)(F)F)n2)CC1 (centres unmarked) [CU079]	86	89	6.41	Toxic
OC(COc1ccc2c(c1)OCO2)CN1CCC(Nc2nccc(C(F)(F)F)n2)CC1 (centres unmarked) [CU080]	86	91	96	7.4
COc1cccc(OCC(O)CN2CCC(Nc3nccc(C(F)(F)F)n3)CC2)c1 (centres unmarked) [CU081]	94	93	102	17
N#Cc1cccc(OCC(O)CN2CCC(Nc3nccc(C(F)(F)F)n3)CC2)c1 (centres unmarked) [CU082]	89	85	100	19
OC(COc1ccccc1)CN1CCC(Nc2nccc(C(F)(F)F)n2)C1 (centres unmarked) [CU083]	89	95	100	32

SMILES	5 uM Avg Cell # Score (RAW 264.7 macrophages)	25 uM Avg Cell # Score (RAW 264.7 macrophages)	5 uM Avg Antibacterial Score [1]	25 uM Avg Antibacterial Score [1]
OC(COc1ccccc1Cl)CN1CCC(Nc2nccc(C(F)(F)F)n2)C1 (centres unmarked) [CU084]	96	46	93	Toxic
OC(COc1cccc(Cl)c1)CN1CCC(Nc2nccc(C(F)(F)F)n2)C1 (centres unmarked) [CU085]	92	33	47	Toxic
OC(COc1ccc(Cl)cc1)CN1CCC(Nc2nccc(C(F)(F)F)n2)C1 (centres unmarked) [CU086]	89	27	71	Toxic
OC(COc1ccc(Cl)cc1Cl)CN1CCC(Nc2nccc(C(F)(F)F)n2)C1 (centres unmarked) [CU087]	98	78	36	Toxic
OC(COc1cc(Cl)cc(Cl)c1)CN1CCC(Nc2nccc(C(F)(F)F)n2)C1 (centres unmarked) [CU088]	101	98	22	Toxic
OC(COc1ccc(Cl)c(Cl)c1)CN1CCC(Nc2nccc(C(F)(F)F)n2)C1 (centres unmarked) [CU089]	101	91	30	Toxic
CCOC(=O)c1cccc(OCC(O)CN2CCC(Nc3nccc(C(F)(F)F)n3)C2)c1 (centres unmarked) [CU090]	91	48	70	Toxic
COC(=O)c1ccc(OCC(O)CN2CCC(Nc3nccc(C(F)(F)F)n3)C2)cc1 (centres unmarked) [CU091]	89	95	97	9.52
OC(COc1cccc(C(F)(F)F)c1)CN1CCC(Nc2nccc(C(F)(F)F)n2)C1 (centres unmarked) [CU092]	86	72	41	Toxic
N#Cc1ccccc1OCC(O)CN1CCC(Nc2nccc(C(F)(F)F)n2)C1 (centres unmarked) [CU093]	93	79	102	58
N#Cc1ccc(OCC(O)CN2CCC(Nc3nccc(C(F)(F)F)n3)C2)cc1 (centres unmarked) [CU094]	91	71	105	41
COc1ccccc1OCC(O)CN1CCC(Nc2nccc(C(F)(F)F)n2)C1 (centres unmarked) [CU095]	88	83	100	43
COc1ccc(OCC(O)CN2CCC(Nc3nccc(C(F)(F)F)n3)C2)cc1 (centres unmarked) [CU096]	74	92	103	29
OC(COc1ccc(F)cc1)CN1CCC(Nc2nccc(C(F)(F)F)n2)C1 (centres unmarked) [CU097]	95	95	100	6.44
OC(COc1ccc(F)cc1F)CN1CCC(Nc2nccc(C(F)(F)F)n2)C1 (centres unmarked) [CU098]	89	88	92	12
OC(COc1ccc2c(c1)OCO2)CN1CCC(Nc2nccc(C(F)(F)F)n2)C1 (centres unmarked) [CU099]	77	102	104	25
CC(=O)Nc1cccc(OCC(O)CN2CCC(Nc3nccc(C(F)(F)F)n3)C2)c1 (centres unmarked) [CU100]	80	96	105	110
